From US20250249001A1, “METHODS OF TREATING SUBSTANCE USE DISORDER WITH 4-(3-CYANOPHENYL)-6-PYRIDINYLPYRIMIDINE MGLU5 NEGATIVE ALLOSTERIC MODULATORS” (Tempero Bio, Inc., priority 2022, published 2025)

Legend:
[1] = test system: operant alcohol self-administration in Wistar rats; experiment: Operant alcohol self-administration (FR-1), acute treatment; format: in vivo; conditions: 3 mg/kg IP, 1-h pretreatment
Excerpt: Twelve operant conditioning chambers designed for rats (30.5 cm×24.1 cm×21.0 cm; Med Associates, Georgia, VT) were located within sound-attenuating cubicles in a devoted room to limit extraneous potential impact by extraneous environmental variables. Each cubicle was equipped with an exhaust fan that provided ventilation and masked external sounds. The chambers were electronically interfaced to a Microsoft Windows based computer that was programmed using investigator developed software to control sessions and record number of lever press responses at 100-ms intervals.
The right wall of each chamber contained a liquid receptacle and a response lever (Med Associates) that was termed the active lever. Lever press responses on the active lever activated a syringe pump (PHM-100, Med Associates) that delivered 0.1 ml of alcohol solution (ethanol 8% v/v+sucrose 2% w/v) into the receptacle over a 1.66-s period. Head entries into the liquid receptacle were recorded when an infrared photo beam was broken. A stimulus light located above the response lever was illuminated during pump activation. Lever presses during reinforcer delivery were recorded but produced no programmed consequence. […] Behavior on this lever serves as a control for motor disruptions and other nonspecific effects of test compounds. […]
Testing the efficacy of Compound 1 to reduce the reinforcing, or rewarding, effects of alcohol. Following establishment of stable baseline self-administration behavior, effects of pre-session treatment with the novel mGluR5 negative allosteric modulator Compound 1 (0, 0.3, 1, 3, and 10 mg/kg, IP) were evaluated on operant alcohol self-administration behavior (n=12 rats). […] Parameters of operant performance were measured, including total lever press responses, number of headpokes into the liquid receptacle, and rate of operant responding, which is a direct measure of positive reinforcement function. […]

[2] = test system: voluntary home-cage alcohol drinking by Wistar rats; experiment: Home-cage two-bottle choice alcohol drinking, acute treatment; format: in vivo
Method: Animals: Male Wistar rats (Charles River Laboratories, INC) were used in these studies. Rat housing and testing was conducted at the University of North Carolina at Chapel Hill (UNC-CH) School of Medicine in a state-of-the-art rodent vivarium approved by the Association for Assessment and Accreditation of Laboratory Animal Care International (AAALAC). Rat health was monitored daily by study investigators and veterinarians in the Division of Comparative Medicine UNC. All experimental procedures were carried out in accordance with the NIH Guide to Care and Use of Laboratory Animals (Committee for the Update of the Guide for the Care and Use of Laboratory Animals, 2011) and institutional guidelines.
Rats were housed individually in standard Plexiglas cages with standard rodent food and water available ad libitum. Upon arrival from the vendor, rats were given 7 days to acclimate to the vivarium during which they were weighed and handled by an investigator each day to monitor general health and habituate them to human contact. Rats were then weighed each day within 1-h of experimental procedures to calculate drug dosages relative to body weight. […] The colony was maintained at […] on a 12-hour light/dark cycle, with the lights on from 10 AM-10 PM. All behavioral experiments were conducted during the light portion of the light cycle.
Home-cage alcohol drinking method. Oral alcohol and water intake were examined using a two-bottle choice protocol, which is standard in the field and commonly used in our laboratory. Male Wistar rats (n=12) were first adapted to drinking from a 50 ml conical tube fitted with a standard stainless-steel ball bearing sipper tube that limits spillage. Then, two bottles were place on the cage daily. One bottle contained an alcohol solution and the other contained water. Bottles containing fresh solutions were weighed daily before and after a 24 hr access period. After drug treatment, bottles were weighed after 1 hr and 24 hrs of access. Each week, rats had 4-5 days of sweetened alcohol and water available and the remaining days only water.
Briefly, rats were first exposed to alcohol (10% v/v)+sucrose (5% w/v). versus water in the two bottles. Then, over a period of 6-weeks, the concentrations of alcohol and sucrose were gradually adjusted to alcohol (8% v/v)+sucrose (2% w/v) to achieve intake of pharmacologically relevant doses of alcohol. Rats were maintained at this concentration for the duration of the experiment for both acute (3.1.a) and chronic (3.1.b) home-cage drinking studies. Use of sweetened alcohol solutions in preclinical research provides face validity to the binge-intoxication stage of alcohol addiction in humans where sweeteners are commonly added to alcohol.
Compound 1 treatment. After establishing baseline intake of sweetened alcohol and water, rats were habituated to i.p. injections. All rats (N=12) were administered 3 habituation injections of vehicle (10% w/v kolliphor in BCD (10%)) prior to the Compound 1 dose response curve and alcohol intake was measured. Then, the Compound 1 dose response curve was conducted with dose order randomized according to a modified Latin-Square design. Rats were given a minimum of 1-2 days between injections to ensure normal drinking was re-established in absence of drug administration. Each dose of Compound 1 (0-10 mg/kg) was administered via i.p. injection and rats were placed back in the home-cage for 1 hr prior to the return of sweetened alcohol and water. Alcohol intake was measured after 1-h and 24-hrs of access in grams by weighing the drinking bottles. Data were excluded from 1 rat that emptied both bottles fully each day without drinking the solutions; thus, results are presented for a final group of N=11 rats.
Efficacy comparisons to MPEP and Naltrexone. […]

[3] = test system: cocaine-induced CPP in male SD rats; format: in vivo, Sprague Dawley rats; conditions: cocaine 10 mg/kg IP on days 3, 5, 7, 9; day 10 bias test
Method: Animals: Male Sprague Dawley rats (Envigo, IN, 275-299 g) were group housed upon arrival (2 per cage). All rats were examined and handled to assure adequate health and suitability. During the study, a 12/12 light/dark cycle was maintained (lights switched on at 7:00 am). The room temperature was maintained between […] and 23° C. with a relative humidity maintained around 50%. Chow (LabDiet #5001) and water were provided ad libitum for the duration of the study. The test was performed during the animal's light cycle phase.
Cocaine (10 mg/kg) was dissolved in saline and injected IP at a dose volume of 1 ml/kg. Cocaine was administered on training days 3, 5, 7 and 9 immediately prior to training.
3-((2-Methyl-4-thiazolyl)ethynyl)pyridine (MTEP, 3 mg/kg), was dissolved in saline and injected IP on day 10 (bias test) at a dose volume of 1 ml/kg 30 minutes prior to testing.
Compound 1 (1, 3 and 10 mg/kg) was formulated in 10% Solutol HS15 and 90% (10% aqueous 2-hydroxypropyl-β-cyclodextrin) and injected IP on day 10 (bias test) at a dose volume of 2 ml/kg. Compound 1 was administered 30 minutes prior to testing.
The chamber used in this study contained two compartments [(60 cm (L)×40 cm (W)×24 cm (H)]. The compartment used for each animal and drug pairing was assigned and counterbalanced in advance and adjusted as necessary in the rebalancing procedure after day 1 (see details below). Within the chamber, visual and physical features were used to create the two distinct compartments. For example, one compartment may have a flat plastic floor with white stripes and the other may have a textured floor and black stripes. The chambers were cleaned with 70% alcohol in between runs.
Testing sessions were recorded on days 1 and 10 to determine time spent (seconds) in each chamber.
Day 1 Pre-conditioning/Habituation: Animals are allowed to explore the entire testing chamber freely for 20 min. Animals that display a strong preference for one compartment (>75% time spent in one compartment) are excluded.
Rebalancing Procedure: Animals are rebalanced following day 1 scoring if the difference between groups for time spent in one compartment is greater than 15%.
Days 2-9 Conditioning: All animals are treated with saline on days 2, 4, 6, and 8 and with cocaine or saline on days 3, 5, 7, and 9 depending on their assigned group. Animals are confined to their assigned compartment (saline- or cocaine-paired compartment) for 20 minutes following dosing.
Day 10 Post-conditioning bias test: Animals are dosed once with either saline, MTEP or Compound 1 (1, 3 and 10 mg/kg) according to their assigned. Following dosing, animals are allowed to explore the testing chamber freely for 20 minutes with the compartment dividing door open. Their activity exploring the chamber is recorded for analysis.
Statistical Analysis: Statistical analysis was conducted using GraphPad Prism 9. Scorers blinded to the treatment groups scored the amount of time each animal spent exploring each chamber on days 1 and 10. For bias test data, a one-way analysis of variance (ANOVA) followed by Dunnett's post hoc test was used. Significance was set at p<0.05 and values exceeding two standard deviations of the mean were considered statistical outliers and were excluded from the analysis. Additionally, if an animal spent >85% or <15% of the time in one compartment even without any obvious signs of sedation or locomotor dysfunction, they were excluded from the analysis.

| Structure (SMILES) | EtOH reinforced responses vs vehicle, multiple comparisons [1] | H2O intake after 24-hr access ([2]; 3 mg/kg i.p., Compound 1 or comparison compounds) | water intake after 1-hr access ([2]; Compound 1 0-10 mg/kg, or Compound 1, MPEP, Naltrexone 3 mg/kg i.p.) | alcohol intake at the 24-hr measurement interval, comparison of equivalent doses ([2]; each drug 3 mg/kg i.p. acute) | alcohol drinking at 1-hr of access vs vehicle control, positive control comparison ([2]; each drug 3 mg/kg i.p. acute, N=11) | Percent time in compound-paired compartment, Mean Diff., Cocaine - Saline vs. Saline - Saline [3] [%] | Preference Scores (time difference drug-paired minus saline-paired), Mean Diff., Cocaine - Saline vs. Saline - Saline [3] [s] |
| --- | --- | --- | --- | --- | --- | --- | --- |
| O=C1CC[C@@]2(O)[C@H]3Cc4ccc(O)c5c4[C@@]2(CCN3CC2CC2)[C@H]1O5 [Naltrexone, reference compound] | reduced EtOH reinforced responses | no effect | did not reach statistical significance | only Compound 1 (3 mg/kg) maintained efficacy | significantly decreased alcohol drinking |  |  |
| COC(=O)[C@H]1[C@@H](OC(=O)c2ccccc2)C[C@@H]2CC[C@H]1N2C [Cocaine] |  |  |  |  |  | 13.86 | 332.9 |
